The values that follow come from US10858360B2, “Tricyclic gyrase inhibitors” (priority 2011, dated 2020).

One assay concerns S. aureus ATCC 13709. The experiment in a line: MIC, S. aureus ATCC 13709 (Alamar Blue broth microdilution). To be noted: for MIC: Staphylococcus aureus, ATCC13709, S. aureus. The assay is classed as cell-based.
In the next assay the test system is E. coli ATCC 25922. The experiment in a line: MIC, E. coli ATCC 25922. The format is cell-based. To be noted: for MIC: Escherichia coli, ATCC25922, E. coli.
[1] abbreviates: S. aureus, Alamar Blue read after overnight incubation at 35° C.
Setting [2] is: E. coli, Alamar Blue read after overnight incubation at 35° C.
The mark [3] stands for this setting: Alamar Blue read after overnight incubation at 35° C.

In brackets after ≈: the same amount, converted by molar mass. Read-outs that look alike come from different tables or passages of the source.

In the case of `CNc1cc(F)cc2c1[nH]c1nc(Oc3cnc(C4CC4)nc3)nc(N3CCC(N)C3)c12` (stereo not drawn) [4.243], the “MIC Sa” value in the assay on S. aureus ATCC 13709 (setting [1]) is no more than 0.5 µg/mL. Further, in the assay with E. coli ATCC 25922 (setting [2]), the “MIC Ec” value was no more than 0.5 µg/mL.
Take `CNc1cc(F)cc2c1[nH]c1nc(Oc3cnc(C)nc3)nc(N3CC(NC(=O)CN)C4(CC4)C3)c12` (stereo not drawn) [4.085]: the “MIC Sa” value in the assay on S. aureus ATCC 13709 (setting [1]) was no more than 0.5 µg/mL. For the same compound, in the assay on E. coli ATCC 25922 (setting [2]), the “MIC Ec” value was 2 µg/mL (≈ 4.07 µM).
With `CNc1cc(F)cc2c1[nH]c1nc(Oc3cnc4c(c3)C(=O)NC4)nc(N3CC4C[C@@H](N)C4C3)c12` (stereo partly drawn) [4.357], the MIC against S. aureus ATCC 13709 (setting [3]) is no more than 0.5 µg/mL; in the assay on E. coli ATCC 25922 (setting [3]) it was 4 µg/mL (≈ 8.43 µM).
Taken in the same sequence, the figures for `Cc1ncc(Oc2nc(N3CC4CC3C[C@@H]4N)c3c(n2)[nH]c2c(N)cc(F)cc23)cn1` (stereo partly drawn) [2.160] were 8 µg/mL (≈ 19 µM) and 16 µg/mL (≈ 38.1 µM).
In the same order, the values of `CNc1cc(F)cc2c1[nH]c1nc(Oc3cnc4cccnc4c3)nc(N3CC[C@@]4(C[C@H]4N)C3)c12` [4.041] are no more than 0.5 µg/mL and 1 µg/mL (≈ 2.13 µM).
Take `CNc1ncc(Oc2nc(N3CC(N)C4(CC4)C3)c3c(n2)[nH]c2c(NC)cc(F)cc23)cn1` (stereo not drawn) [4.216]: the “MIC Sa” value with S. aureus ATCC 13709 (setting [1]) was no more than 0.5 µg/mL. Also, in the assay with E. coli ATCC 25922 (setting [2]), the “MIC Ec” value was no more than 0.5 µg/mL.
On to `CNc1cc(F)cc2c1[nH]c1nc(Oc3cnc(CC(=O)N4CCOCC4)nc3)nc(N3C[C@H](N)C4(CC4)C3)c12` [4.369], for which the values for the MIC in the assay on S. aureus ATCC 13709 (setting [3]) and against E. coli ATCC 25922 (setting [3]) were no more than 0.5 µg/mL and 1 µg/mL (≈ 1.83 µM), respectively.
`CNc1cc(F)cc2c1[nH]c1nc(Oc3cnc(N4CCN(C(C)=O)CC4)nc3)nc(N3CCC(N)C3)c12` (stereo not drawn) [4.229]: the “MIC Sa” value with S. aureus ATCC 13709 (setting [1]) was no more than 0.5 µg/mL. In addition, the “MIC Ec” value in the assay with E. coli ATCC 25922 (setting [2]) came out at 2 µg/mL (≈ 3.84 µM).
Turning to `CNc1cc(F)cc2c1[nH]c1nc(Oc3cncc(-c4cncnc4)c3)nc(N3CC4C(N)C4C3)c12` (stereo not drawn) [4.205], the minimum inhibitory concentration (MIC) with S. aureus ATCC 13709 (setting [3]) and against E. coli ATCC 25922 (setting [3]) was no more than 0.5 µg/mL in each case.
As to `CNc1cc(F)cc2c1[nH]c1nc(Oc3cnc(C4CCC4)nc3)nc(N3CC4C(N)C4C3)c12` (stereo not drawn) [4.286], the minimum inhibitory concentration (MIC) with S. aureus ATCC 13709 (setting [3]) and against E. coli ATCC 25922 (setting [3]) was no more than 0.5 µg/mL each time.
As to `COc1cccc2c1[nH]c1nc(Sc3cnc4ccc[n+]([O-])c4c3)nc(N3CC[C@@H](N)C3)c12` [1.78], the MIC against S. aureus ATCC 13709 (setting [3]) is no more than 0.5 µg/mL; in the assay with E. coli ATCC 25922 (setting [3]), 64 µg/mL (≈ 139 µM).
Take `CNc1cc(F)cc2c1[nH]c1nc(Oc3cnc4cccnc4c3)nc(N3CC4CCN[C@H]4C3)c12` (stereo partly drawn) [4.044]: the minimal inhibitory concentration (MIC) in the assay with S. aureus ATCC 13709 (setting [3]) and against E. coli ATCC 25922 (setting [3]) was no more than 0.5 µg/mL each time.
In the case of `CNc1cccc2c1[nH]c1nc(Oc3cncnc3)nc(Oc3cncnc3)c12` [3.37], the MIC in the assay on S. aureus ATCC 13709 (setting [3]) was 2 µg/mL (≈ 5.18 µM); against E. coli ATCC 25922 (setting [3]), greater than 64 µg/mL.
`CNc1cccc2c1[nH]c1nc(Sc3cnc4cccnc4c3)nc(N3CCC[C@@H](N)C3)c12` [1.37]: the minimum inhibitory concentration (MIC) was determined as 1 µg/mL (≈ 2.19 µM) with S. aureus ATCC 13709 (setting [3]) and 4 µg/mL (≈ 8.76 µM) with E. coli ATCC 25922 (setting [3]).
In the case of `CNc1cc(F)cc2c1[nH]c1nc(Oc3cnc4cccnc4c3)nc(N3CC4NCCOC4C3)c12` (stereo not drawn) [4.048], in the assay on S. aureus ATCC 13709 (setting [1]), the “MIC Sa” value is no more than 0.5 µg/mL. Also, the “MIC Ec” value against E. coli ATCC 25922 (setting [2]) came out at 1 µg/mL (≈ 2.06 µM).
Regarding `CNc1cc(F)cc2c1[nH]c1nc(Oc3cnc4cccnc4c3)nc(N3CC4[C@H](C[C@H]4N)C3)c12` (stereo partly drawn) [4.043], the MIC against S. aureus ATCC 13709 (setting [3]) and in the assay with E. coli ATCC 25922 (setting [3]) was no more than 0.5 µg/mL in each case.
With `CNc1cccc2c1[nH]c1nc(Oc3cnc(C)nc3)nc(N3CC[C@@H](N)C3)c12` [3.5], the MIC was 0.25 µg/mL (≈ 0.64 µM) with S. aureus ATCC 13709 (setting [3]) and no more than 0.5 µg/mL in the assay with E. coli ATCC 25922 (setting [3]).
Taken in the same sequence, the figures for `CNc1nccc2c1[nH]c1nc(Sc3cnc4nccnc4c3)nc(N3CC[C@@H](N)C3)c12` [7.01] were 8 µg/mL (≈ 18 µM) and greater than 64 µg/mL.
In the same order, the values of `CNc1cc(F)cc2c1[nH]c1nc(Oc3cncnc3)nc(N3CC(N)C4(CC4)C3)c12` (stereo not drawn) [4.002] are no more than 0.5 µg/mL and no more than 0.5 µg/mL.
With `CNc1cc(F)cc2c1[nH]c1nc(Oc3cncnc3)nc(N3CC4CNC(C4)C3)c12` (stereo not drawn) [4.015], the MIC is no more than 0.5 µg/mL in the assay on S. aureus ATCC 13709 (setting [3]) and 1 µg/mL (≈ 2.38 µM) in the assay on E. coli ATCC 25922 (setting [3]).
As to `CNc1cc(F)cc2c1[nH]c1nc(Oc3cnc(C)nc3)nc(N3CC(N)C3)c12` [4.138], the “MIC Sa” value in the assay with S. aureus ATCC 13709 (setting [1]) was no more than 0.5 µg/mL. Also, the “MIC Ec” value against E. coli ATCC 25922 (setting [2]) is no more than 0.5 µg/mL.
Regarding `CNc1cc(Cl)cc2c1[nH]c1nc(Oc3cnc(C)nc3)nc(N3CC4CCCNC4C3)c12` (stereo not drawn) [6.13], the “MIC Sa” value against S. aureus ATCC 13709 is no more than 0.5 µg/mL. Besides, in the assay with E. coli ATCC 25922, the “MIC Ec” value is no more than 0.5 µg/mL.
With `CNc1cc(F)c(F)c2c1[nH]c1nc(Oc3cnc(N)nc3)nc(N3CC4(CCC4N)C3)c12` (stereo not drawn) [5.07], the “MIC Sa” value with S. aureus ATCC 13709 (setting [1]) was no more than 0.5 µg/mL. In addition, the “MIC Ec” value in the assay on E. coli ATCC 25922 (setting [2]) stood at 1 µg/mL (≈ 2.21 µM).
Take `CNc1cc(F)cc2c1[nH]c1nc(Oc3cncc(Cl)c3)nc(N3CC(N)C4(CC4)C3)c12` (stereo not drawn) [4.273]: the “MIC Sa” value with S. aureus ATCC 13709 (setting [1]) was no more than 0.5 µg/mL. Moreover, the “MIC Ec” value in the assay on E. coli ATCC 25922 (setting [2]) worked out at 2 µg/mL (≈ 4.41 µM).
In the case of `CNc1cc(F)cc2c1[nH]c1nc(Oc3cnc(C(C)(C)O)nc3)nc(N3CC4CC3C[C@@H]4N)c12` (stereo partly drawn) [4.411], the minimum inhibitory concentration (MIC) in the assay on S. aureus ATCC 13709 (setting [3]) and against E. coli ATCC 25922 (setting [3]) was no more than 0.5 µg/mL throughout.
As for `CNc1cc(F)cc2c1[nH]c1nc(Oc3cncc(C#N)c3)nc(N3CC4CC(N)C4C3)c12` (stereo not drawn) [4.053], in the assay with S. aureus ATCC 13709 (setting [1]), the “MIC Sa” value is no more than 0.5 µg/mL. Moreover, in the assay on E. coli ATCC 25922 (setting [2]), the “MIC Ec” value was no more than 0.5 µg/mL.
In the case of `CNc1cc(F)cc2c1[nH]c1nc(Oc3cnc(SC)nc3)nc(N3CCC(N)C3)c12` (stereo not drawn) [4.199], the “MIC Sa” value in the assay on S. aureus ATCC 13709 (setting [1]) was no more than 0.5 µg/mL. For the same compound, the “MIC Ec” value in the assay with E. coli ATCC 25922 (setting [2]) is no more than 0.5 µg/mL.

For orientation: MIC means the least concentration at which growth counts as inhibited.
